From patent US11479611B2 (China Medical University Hospital, priority 2019, dated 2022)

What was measured:
Type in all cases: cell-based
[1] = test system: HLA-G on the plasma membrane of the human ovarian cancer cell line SKOV3; assay: HLA-G expression level of tumor cells by flow cytometry; conditions: 20 μM, 48 hours, compared to untreated control, p<0.001
[2] = test system: human ovarian cancer cell line SKOV3; assay: tumor cell death (cytotoxicity), Annexin V-FITC/PI flow cytometry; conditions: treated alone; carboplatin 20 μM or 1×10^5 parental cells
Protocol: (§1) The cells are subsequently incubated for 24 hours. Each type of the tumor cells is divided into six groups. In a control, the tumor cells are untreated. In a group 1, the tumor cells are treated with the chemotherapy drug. In a group 2, the tumor cells are treated with the parental primary NK cell. In a group 3, the tumor cells are treated with the parental primary NK cell and the chemotherapy drug. In the groups 2 and 3, the number of the parental primary NK cell treated is 1×10^5 cells. In a group 4, the tumor cells are treated with the Example 1. In a group 5, the tumor cells are treated with the Example 1 and the chemotherapy drug. […] The treated cells are stained with Annexin V-FITC and propidium iodide (PI), and the apoptosis and the death of the tumor cells are detected by the flow cytometry. The sum of the percentage of cells stained with Annexin V-FITC and/or PI (that is the percentage of cells in the first quadrant, the second quadrant, and the fourth quadrant of the bivariate flow cytometry scatter plot) are calculated to obtain the cytotoxicity. The results of the cytotoxicity are counted after the three independent trials in each group.
(§2) The cells are subsequently incubated for 24 hours. […] The treated cells are stained with Annexin V-FITC and propidium iodide (PI), and the apoptosis and the death of the tumor cells are detected by the flow cytometry. […]

[3] = test system: HLA-G on the plasma membrane of the human breast cancer cell line MDA-MB-231; assay: HLA-G expression level of tumor cells by flow cytometry; conditions: 200 nM, 48 hours, compared to untreated control, p<0.001
Protocol: First, the human breast cancer cell line MDA-MB-231, the human malignant brain tumor cell line DBTRG, the human pancreatic cancer cell line AsPC1 and the human ovarian cancer cell line SKOV3 are seeded in a 6-well plate at a density of 2×10^5 cells/well. The cells are subsequently incubated for 24 hours. Each type of the tumor cells is divided into two groups. In a control, the tumor cells are untreated. In an experiment group, the tumor cells are treated with the chemotherapy drug for 48 hours. […] Then, the HLA-G expression level of the tumor cells are detected by flow cytometry.

[4] = test system: human breast cancer cell line MDA-MB-231; assay: tumor cell death (cytotoxicity), Annexin V-FITC/PI flow cytometry; conditions: treated alone; doxorubicin 200 nM or 1×10^5 parental cells
Protocol: (§3) The cells are subsequently incubated for 24 hours. […] In a control, the tumor cells are untreated.
as §3

[5] = test system: human pancreatic cancer cell line AsPC1; assay: as above; conditions: treated alone; gemcitabine 20 μM or 1×10^5 parental cells
Protocol: as §1, §2

## N.N.O=C([O-])C1(C(=O)[O-])CCC1.[Pt+2] [carboplatin]
[1]
  expression of HLA-G on the plasma membrane of SKOV3: increase the expression of HLA-G
[2]
  death rate of SKOV3 compared to the control (in words): increased, but there is no statistically significant differences compared to the control

## COc1cccc2c1C(=O)c1c(O)c3c(c(O)c1C2=O)C[C@@](O)(C(=O)CO)C[C@@H]3O[C@H]1C[C@H](N)[C@H](O)[C@H](C)O1 [doxorubicin]
[3]
  expression of HLA-G on the plasma membrane of MDA-MB-231: increase the expression of HLA-G
[4]
  death rate of MDA-MB-231 compared to the control (in words): increased, but there is no statistically significant difference compared to the control

## Nc1ccn([C@@H]2O[C@H](CO)[C@@H](O)C2(F)F)c(=O)n1 [gemcitabine]
[5]
  death rate of AsPC1 compared to the control (in words): increased, but there is no statistically significant difference compared to the control
